Here are results for twelve molecules from US9744186B2 (priority 2012, dated 2017).

SMILES strings stand for the structures.

In data set [1] the test system is HCV luciferase replicon. Put plainly: Reversal of anti-HCV activity by exogenous nucleosides. The format is cell-based, hepatitis C virus (HCV). The conditions noted are these: 48 h. The method, then: After 48 hours, the cells were lysed, and the total luciferase activity was determined. […] Where indicated, either 50 μM cytidine (C) or 50 μM 2′-deoxycitidine (dC) was also included.
The cells were plated, incubated with drug, and luciferase activity assayed essentially as described herein above. The incubation with drug was for 48 h.

In data set [2] the test system is HCV luciferase replicon. In words: HCV luciferase replicon IC50 assay in Huh7 cells. The conditions noted are these: for IC50: Hepatitis C virus, Huh-7, 48 h, Huh7 cells containing HCV luciferase replicon, cells exposed to drug for 48 h; for Therapeutic Index (TC50/IC50): TC50 in Huh7 / IC50 HCV replicon, 48 h. The method, then:
Plating Cells: The Luciferase replicon cell line was passaged when it was at about 70% confluency. The cells were counted by using a hemocytometer and diluted to 1×10^5 cells per mL in DMEM+10% FBS+[…] G415. The cells were plated as follows: 100 μL of the cells (10,000 cells) per well in a white-walled 96-well plate. The cells were allowed to attach for 24 hours at 37° C.
(§1) Treating the cells: Media (DMEM+2% FBS) was pre-warmed to 37° C. […] The 96-well plate was removed from the 37° C. incubator, and the media replaced on the plate with the serial dilutions of the test drug. The plate was then returned to 37° C. for 48 h.
Luciferase Assay: The Bright-Glo reagent (Promega Corporation, Madison, Wis.) was removed from the −80° C. freezer and allowed to thaw it at 4° C. in the dark. The amount of reagent necessary for the experiment (3.65 mL) was removed, and the remaining reagent was returned to −80° C. The Glo Lysis Buffer and the Bright Glow reagent were allowed to warm to room temperature for 30 min in the dark. The 96 well plate was removed from the incubator and the cells to allowed cool to room temperature for 30 min. The media was removed from the cells, and each well was gently washed in 100 μL of phosphate buffered saline (PBS). The PBS was removed and then 50 μL of the Glo Lysis Buffer was added to each well, followed by gently rocking the plate for 15 min at room temperature in the dark to ensure complete cell lysis. To each well of the 96-well plate was added 50 μL of the Bright Glo reagent and it was mixed well with the lysate. The plate was inserted into a GloMax 96 plate reader and allowed to sit for 5 min in the dark for the luciferase reaction to reach a steady state. The luminescence on the plate was read by using the pre-installed “Bright Glo” Promega program (Synergy Software) and the data were collected and saved. The data were fit to a 4 parameter logistic curve using Kaleidagraph using the following equation: 100/(1+(x/m3)^m4).
The data in Table 1 were determined for cells exposed to drug for 48 h. The IC50 is the concentration of each compound necessary to inhibit the replication of the HCV luciferase replicon to 50%.
That is, the cells were exposed to drug for 2 h at 37° C., followed by 46 h at 37° C. or incubated in the presence of drug for 48 h at 37° C.

For data set [3], the system named is Huh7 cells. Put plainly: in vitro. As to conditions: read-out: TC50; control Huh7 cells; 48 h drug exposure; MTS. The method, then: (§2) Plating Cells: The Huh7 cell line was passaged when it was at about 70% confluency. The cells were counted using a hemocytometer, followed by dilution of the cells to 0.5×10^5 cells per mL in DMEM+10% FBS. The cells were plated at 100 μL (5,000 cells) per well in a clear 96-well plate. The cells were allowed to attach for 24 hours at 37° C.
(§3) Treating the cells: The media (DMEM media without phenol red+2% FBS media) was pre-warmed to 37° C. […] This provided a final DMSO concentration of 0.5%. The 100 mM stock of 3,5-dichlorobenzoic acid was diluted in DMEM without phenol red+2% FBS to a concentration of 0.5 mM. The working 0.5 mM diluted test drugs were serially diluted in DMEM without phenol red+2% FBS+0.5% DMSO in order to maintain a constant concentration of DMSO in each condition. The 96-well plate was removed from the 37° C. incubator, and the media on the plate was replaced with media containing diluted test drug.
(§4) MTS Assay: The reagents from CellTiter 96 kit (Promega Corporation, Madison, Wis.) were thawed at room temperature in the dark for 1 h. The 96-well plate was removed from the 37° C. incubator at 48 h after drug treatment. 20 μL of the combined MTS/PMS reagent to each well of the plate, mixed, and the plate returned to 37° C. The absorbance of each well at 490 nm and 650 nm was determined using the Flexstation 3 microplate reader in endpoint mode every hour for 3 h. The solutions in the wells were mixed prior to each reading. The data were fit to the Emax model: y=(Emax*x)/(TC50+x), where Emax is the maximum inhibition and TC50 is the inhibitory dose 50%. Alternatively, the data can be fit to the Emax sigmoidal model: y=(Emax*x^slope)/(TC50^slope+x^slope), where slope is the Hill Slope.

Data set [4] can be described thus: Compound solubility in media. The format is physicochemical. As to conditions: DMEM+2% FBS cell culture media, 37 °C, plasma or biological fluid, kinetic from dmso stock; DMEM+2% FBS media. As to the method:
as §1

A short description of data set [5]: TC50 MTS assay with human cancer cell lines: MCF-7. The format is cell-based. The conditions noted are these: MCF-7 cells, 96 h drug treatment. As to the method:
(§5) Plating Cells: The Huh7, HEPG2, HEK293, MCF-7, PK9, RPK9, or BxPC3 cells were passaged when they were about 70% confluent. The cells were counted using a hemocytometer, and then diluted cells to 0.5×10^5 cells per mL in DMEM+10% FBS. 100 µL of the cells (5,000 cells) were plated per well in a clear 96-well plate. The cells were allowed to attach for 24 hours at 37° C.
(§6) Treating the cells: Pre-warm the DMEM media without phenol red+2% FBS media to 37° C. […] This will bring the final DMSO concentration to 0.5%. Use these 0.5 mM dilutions to further serially the drugs in DMEM without phenol red+2% FBS+0.5% DMSO. This will keep the concentration of DMSO in each condition identical. Remove the 96-well plate from the 37° C. incubator. Replace the media on the plate with the dilutions of the drugs. Stagger these treatments by 1 h and write the treatment time on each set of plates. Return to 37° C. for 48 h or 96 h as indicated.
as §4, with “Fit Data” for “The data were fit”, “Alternatively, fit” for “Alternatively,”, “data” for “data can be fit”
(§7) Each TC50 was the average value of three measurements as described herein. […] The RPK9 cells are deficient in deoxycytidine kinase (“dCK”) activity, an enzyme required for the initial phosphorylation of dFdC to dFdCMP (see FIG. 2).
(In general: Tetrazolium assays rely on reduction of a dye to a coloured formazan, in cell work by metabolically active cells.)

A short description of data set [6]: TC50 MTS assay with human cancer cell lines: HEPG2. As to conditions: HEPG2 cells, 96 h drug treatment. The format is cell-based. As to the method:
as §5, §6
as §4, with “Fit Data” for “The data were fit”, “Alternatively, fit” for “Alternatively,”, “data” for “data can be fit”
as §7

Data set [7] in a line: TC50 MTS assay with human cancer cell lines: HEK293. The conditions noted are these: HEK293 cells, 96 h drug treatment. The format is cell-based. The method, then: as §5, §6
as §4, with “Fit Data” for “The data were fit”, “Alternatively, fit” for “Alternatively,”, “data” for “data can be fit”
as §7

For data set [8], the system named is Huh7 cells. In words: TC50 MTS assay with human cancer cell lines: Huh7. The format is cell-based. The conditions noted are these: 96 h drug treatment. As to the method: as §5, §6
as §4, with “Fit Data” for “The data were fit”, “Alternatively, fit” for “Alternatively,”, “data” for “data can be fit”
as §7

The next data set can be described thus: in vitro. As to the method: as §2, §3, §4
Data set [9] can be described thus: TC50 MTS assay with human cancer cell lines: Huh7. The conditions noted are these: human, Huh7 cells; 48 h drug treatment; no hENT1 inhibitor; read-out: TC50 (μM) in Huh7 cells Control. The format is cell-based. The method, then: as §5, §6
as §4, with “Fit Data” for “The data were fit”, “Alternatively, fit” for “Alternatively,”, “data” for “data can be fit”
as §7

Another data set concerns hENT1. In words: TC50 MTS assay with human cancer cell lines: Huh7. As to conditions: human, Huh7 cells; 48 h drug treatment; 10 μM S-(4-nitrobenzyl)-6-thioinosine (hENT1 inhibitor) added; read-out: TC50 (μM) in Huh7 cells NBTI. The format is cell-based. The method, then:
as §5, §6
as §4, with “Fit Data” for “The data were fit”, “Alternatively, fit” for “Alternatively,”, “data” for “data can be fit”
as §7

Consider `O=C(O)c1cc(Cl)cc(Cl)c1` [3,5-dichlorobenzoic acid, reference compound], for which, in the data set with HCV luciferase replicon [1] (up to 500 μM), the “effect on the HCV luciferase replicon” value was “little effect”.
As usually defined, the IC50 is the concentration needed to halve the response being measured. As for `COc1cccc(OC)c1C(=O)Nc1ccn([C@@H]2O[C@H](CO)[C@@H](O)C2(F)F)c(=O)n1` [Compound G2DB, N^4-(2,6-Dimethoxybenzoyl)gemcitabine], in the data set on HCV luciferase replicon [2], the IC50 stood at 451 ± 37 nM and the “Therapeutic Index (TC50/IC50)” value is 10155. Further, the CC50 in the data set on Huh7 cells [3] is 4.58 ± 1.1 mM.
Usually solubility stands for the concentration that dissolves in the medium under given conditions. The molecule `COc1cc(OC)cc(C(=O)Nc2ccn([C@@H]3O[C@H](CO)[C@@H](O)C3(F)F)c(=O)n2)c1` [Compound G3DB, N^4-(3,5-Dimethoxybenzoyl)gemcitabine] had a solubility in [4] of more than 500 µM. Also, the CC50 at 96 h in [5] is 1570 ± 338 nM; in data set [6], 3.86 ± 1.42 µM; in data set [7], 4.02 ± 0.79 µM. The 50% inhibitory concentration (IC50) in the data set with HCV luciferase replicon [2] stood at 73.4 ± 12 nM. Further, the “Therapeutic Index (TC50/IC50)” value in the data set on HCV luciferase replicon [2] stood at 13100. Also, the “reversal of the inhibition of the HCV luciferase replicon by deoxycytidine and cytidine” value in the data set with HCV luciferase replicon [1] (drug 1000, 100 or 25 nM, 50 μM cytidine or 2′-deoxycitidine) is listed as “reversal”. Further, the CC50 in the data set with Huh7 cells [8] is 18.5 ± 5.32 µM; with Huh7 cells [3] it was 0.962 ± 0.11 mM.
`O=C(Nc1ccn(C2O[C@H](CO)[C@@H](O)C2(F)F)c(=O)n1)c1ccc(Cl)cc1Cl` (stereo partly drawn) [VV-006]: the solubility in data set [4] was less than 500 µM. In the data set on HCV luciferase replicon [2], the IC50 was 77.5 ± 7 nM and the “Therapeutic Index (TC50/IC50)” value was more than 1290. In “in vitro”, this molecule returned a CC50 at 48 h of more than 100 µM.
For `O=C(Nc1ccn(C2O[C@H](CO)[C@@H](O)C2(F)F)c(=O)n1)c1ccc(Cl)c(Cl)c1` (stereo partly drawn) [VV-007], in that order: more than 500 µM, 17.4 ± 1.8 nM, more than 5750 and more than 100 µM.
Take `COc1c(Cl)cc(C(=O)Nc2ccn(C3O[C@H](CO)[C@@H](O)C3(F)F)c(=O)n2)cc1Cl` (stereo partly drawn) [VV-012]: the solubility in data set [4] was more than 500 µM. In the data set on HCV luciferase replicon [2], the IC50 is 19.3 ± 1.6 nM and the “Therapeutic Index (TC50/IC50)” value is reported as more than 5180. This molecule also registered a CC50 at 48 h in the data set “in vitro” of more than 100 µM.
Take `COc1ccc(C(=O)Nc2ccn(C3O[C@H](CO)[C@@H](O)C3(F)F)c(=O)n2)cc1` (stereo partly drawn) [VV-013]: the solubility in data set [4] is more than 500 µM. Moreover, in the data set on HCV luciferase replicon [2], the IC50 is 60 ± 8.2 nM and the “Therapeutic Index (TC50/IC50)” value is reported as 9530. In “in vitro”, this molecule came in with a CC50 at 48 h of 572 ± 73 µM.
Consider `COc1ccc(C(=O)Nc2ccn(C3O[C@H](CO)[C@@H](O)C3(F)F)c(=O)n2)c(OC)c1OC` (stereo partly drawn) [VV-022], for which the solubility in data set [4] is more than 500 µM. Moreover, in the data set with HCV luciferase replicon [2], the IC50 is 34.6 ± 3.5 nM and the “Therapeutic Index (TC50/IC50)” value turned out to be 8670. Moreover, in “in vitro”, the CC50 at 48 h worked out at 300 ± 39 µM.
For `O=C(Nc1ccn(C2O[C@H](CO)[C@@H](O)C2(F)F)c(=O)n1)c1ccc(Cl)cc1` (stereo partly drawn) [VV-033H], in the data set on HCV luciferase replicon [2], the IC50 was determined as 37.6 ± 5.4 nM and the “Therapeutic Index (TC50/IC50)” value was determined as 3670. In addition, in “in vitro”, the CC50 at 48 h came out at 138 ± 28 µM.
As for `Cc1ccc(C(=O)Nc2ccn(C3O[C@H](CO)[C@@H](O)C3(F)F)c(=O)n2)cc1` (stereo partly drawn) [VV-036], in the data set with HCV luciferase replicon [2], the IC50 stood at 43.1 ± 4.4 nM and the “Therapeutic Index (TC50/IC50)” value is 7650. The CC50 at 48 h in [9] stood at 329 ± 57 µM. In the data set with hENT1, the CC50 at 48 h was 240 ± 40 µM.
For `CCc1ccc(C(=O)Nc2ccn(C3O[C@H](CO)[C@@H](O)C3(F)F)c(=O)n2)cc1` (stereo partly drawn) [VV-038], in that order: 58.4 ± 9.9 nM, 8430, 492 ± 58 µM and 360 ± 80 µM.
The molecule `NC(=O)c1ncn([C@@H]2O[C@H](CO)[C@@H](O)[C@H]2O)n1` [ribavirin, reference compound] had a solubility in data set [4] of more than 500 µM. Besides, in the data set on HCV luciferase replicon [2], the IC50 was 51600 ± 2080 nM and the “Therapeutic Index (TC50/IC50)” value is recorded as 10.2. The CC50 at 48 h in the data set “in vitro” is 527 ± 68.2 µM.
